Consider five compounds from US20240336577A1, “PYRAZINE COMPOUND, AND METHOD OF PREPARATION AND USE THEREOF” (SHENZHEN OLIVE BIOPHARMACEUTICALS CO., LTD, priority 2020, published 2024).

SMILES strings stand for the structures.

The test system of assay [1] is db/db mice. The experiment in a line: Biochemical and metabolic indicators in db/db mice, 90 d administration. In kind it is in vivo. The following applies: once/d 90 d, Losartan 15 mg/kg/d, TMP 5.0 mg/kg, OLB-1 2.31 mg/kg, OLB-2 2.3 mg/kg, mean±SEM, n=6.
Assay [2] deals with db/db mice. The experiment in a line: Glucose and lipid metabolism in db/db mice, 56 d administration. The format is in vivo. To be noted: once/d 56 d, TMP 5.0 mg/kg, mean±SEM, n=6; for Creatinine / Total cholesterol / Triglyceride / Urea: Losartan 10 mg/kg; for Creatinine / Total cholesterol / Triglyceride / Urea / Glucose determination / High-density lipoprotein cholesterol / Low-density lipoprotein cholesterol: OLB-1/OLB-2 13.32 mg/kg; for Glycated hemoglobin / Glucose determination / High-density lipoprotein cholesterol / Low-density lipoprotein cholesterol: metformin 225 mg/kg/d; for Glycated hemoglobin: OLB-1/OLB-2 13.32 mg/kg (0.037 mmol/kg). The procedure:
Mice of a normal control group and model mice were given normal saline 10 ml/kg/d, metformin hydrochloride enteric-coated tablets 225 mg/kg/d, Losartan 10 mg/kg, TMP (5.0 mg/kg, 0.037 mmol/kg), and OLB-1 and OLB-2 (13.32 mg/kg, 0.037 mmol/kg), at a volume of 10 mL/kg, once/d, for continuous administration of 56 d, blood lipids and blood glucose related indexes were measured after blood collection. Data were presented as mean±SEM; n=6 per group. One-way ANOVA and multiple range test were adopted to show differences between the two groups. a, p<0.05 vs. db/db group; c, p<0.001 vs. db/db group.

Assay [3] deals with SH—SY5Y neuroblastoma cells. The experiment in a line: LPS-induced inflammatory factors and oxidative stress-related proteins, ELISA kit. In kind it is cell-based. To be noted: 1 μg/mL LPS 24 h, mean±SEM, n=8; for TNF-alpha: differentiated SH-SY5Y, supernatant. The method, then: The SH—SY5Y cells were recovered and cultured, and the cells in the logarithmic growth phase were taken. After 24 h of incubation, SH—SY5Y neuroblastoma cells were treated with 1 μM all-trans retinoic acid to induce differentiation, and then inoculated into a 6-well culture dish for 24 h of incubation. The medium was treated with chemicals feed at 0.2 μM (L) or 1 μM (H) and 1 μg/mL LPS for 24 h, a supernatant medium was aspirated, and changes of inflammatory factors and oxidative stress-related proteins were measured by an ELISA kit. Data were presented as mean±SEM; n=8 per group. One-way ANOVA and multiple range test were adopted to show differences between the two groups. a, p<0.05 vs. LPS group; b, p<0.01 vs. LPS group; c, p<0.001 vs. LPS group.

For assay [4], the system named is 6-OHDA Parkinson's disease rats. The assay is described as follows: APO-induced rotations in 6-OHDA Parkinson's disease rats. The format is in vivo. To be noted: APO-induced 6-OHDA rats, 2 weeks of treatment; different dosages of OLB-1, OLB-2; levodopa 25 mg/kg; FIG. 8. The text has this: There is no rotation in a sham-operated group, and there is no significant difference between the groups injected with 6-OHDA, and there are about 180 rotations. […] Data were presented as mean±SEM; n=9-10 per group. One-way ANOVA and multiple range test were adopted to show differences between the two groups. *p<0.05, **p<0.01 vs. before 6-OHDA group.

Assay [5] concerns ALS (SOD-G93A) transgenic mice. The assay is described as follows: Pole climbing test in ALS transgenic mice. The format is in vivo. To be noted: different dosages of OLB-1, OLB-2, riluzole 5 mg/kg, FIG. 6. The text has this: The pole climbing test is generally used to evaluate a motor coordination ability and motor delay of the limbs in mice. A homemade wooden pole about 50 cm long and about 1 cm in diameter was wrapped with medical gauze to increase friction of the wooden pole. The wooden pole was put vertically on a horizontal table, the mouse tail was grabbed such that the mouse head was facing down, with limbs grabbing a top of the pole; after releasing the mouse tail, timing was started, and it was ensured that the mouse crawled downward without external force, and the time was recorded for the mouse to climb from the top of the pole to a bottom platform (a standard was that mouse hind limbs were landed on the ground). […] An average of the three pole climbing times of mice was calculated as a final pole climbing time. […] Data were presented as mean±SEM; n=10 per group. One-way ANOVA and multiple range test were adopted to show differences between the two groups. ***p<0.001 vs. WT (normal control) group; #p<0.05, ##p<0.01 vs. ALS (SOD-G93A) group.

Assay [6] deals with ALS (SOD-G93A) transgenic mice. The experiment in a line: Limb grip force test in ALS transgenic mice. The format is in vivo. To be noted: different dosages of OLB-1, OLB-2, riluzole 5 mg/kg, FIG. 7. The method, then: The limb grip force test is used directly to assess muscle strength in mice. […] After the start of administration, the grip force of the mice was tested every two weeks, and the measurement was repeated three times for each mouse, and the maximum among the three results was taken as a maximum grip force of the mice. […] Data were presented as mean±SEM; n=10 per group. One-way ANOVA and multiple range test show differences between the two groups. **p<0.01, ***p<0.001 vs. WT (normal control) group; #p<0.05, ##p<0.01 vs. ALS (SOD-G93A) group.

In the case of `CCCCc1nc(Cl)c(CO)n1Cc1ccc(-c2ccccc2-c2nn[nH]n2)cc1` [Losartan, reference compound], in assay [1], the Creatinine is 42.12 ± 1.72(c) μmol/L, the Urea is 7.23 ± 0.51(c) mmol/L and the Urine albumin/creatinine was 522.59 ± 103.42(c) mg/g. In assay [2], the Creatinine is reported as 42.12 ± 1.72(c) μmol/L, the Total cholesterol is listed as 6.76 ± 0.46(c) mM, the Triglyceride was 9.68 ± 0.37(c) mg/dL and the Urea is reported as 7.23 ± 0.51(c) mmol/L.

Consider `Cc1nc(C)c(C)nc1C` [TMP, tetramethylpyrazine, reference compound], for which, in assay [1], the Creatinine amounted to 52.5 ± 3.76 µmol/L, the Urea is on record as 11.55 ± 0.59 ^ mmol/L and the Urine albumin/creatinine was 687.35 ± 79.04 ^ mg/g. In assay [2], the Creatinine stood at 52.5 ± 3.76 µmol/L, the Total cholesterol was 10.96 ± 1.38 ^ mM, the Triglyceride is 12.83 ± 1.37 ^ mg/dL and the Urea was 11.55 ± 0.59 ^ mmol/L. Also, in assay [2], the Glycated hemoglobin is 917.31 ± 57.43 ^ nmol/L, the Glucose determination is 37.94 ± 3.11 ^ mM, the High-density lipoprotein cholesterol is listed as 2.49 ± 0.16 ^ mM and the Low-density lipoprotein cholesterol is listed as 0.68 ± 0.04 ^ mM. Also, in assay [3] (compound 0.2 μM (L)), the GSH-Px amounted to 5.96 ± 0.74 µmol/mg, the IL1 is 13.26 ± 1.31 pg/mL, the IL6 was 14.12 ± 1.46 pg/mL and the MDA is recorded as 23.34 ± 1.71 nmol/mg. Further, in assay [3] (compound 0.2 μM (L)), the SOD is recorded as 9.57 ± 0.61 nU/ml and the TNF-alpha was found to be 12.22 ± 1.28 pg/mL. In assay [3] (compound 1 μM (H)), this compound yielded a GSH-Px of 6.90 ± 0.87 µmol/mg, an IL1 of 13.53 ± 1.74 pg/mL, an IL6 of 12.69 ± 1.85 pg/mL and an MDA of 22.94 ± 1.33 nmol/mg. Moreover, in assay [3] (compound 1 μM (H)), the SOD was found to be 8.93 ± 0.47 nU/ml and the TNF-alpha came out at 12.64 ± 1.70 pg/mL.

Turning to `N[C@@H](Cc1ccc(O)c(O)c1)C(=O)O` [levodopa, reference compound], the number of rotations entry in assay [4] is given as “effectively reduce the number of rotations”.

For the compound `CN(C)C(=N)N=C(N)N` [metformin, reference compound], in assay [2], the Glycated hemoglobin is recorded as 628.52 ± 50.59(c) nmol/L, the Glucose determination is 24.01 ± 2.38(c) mM, the High-density lipoprotein cholesterol is 2.19 ± 0.12(a) mM and the Low-density lipoprotein cholesterol was 0.59 ± 0.02(c) mM.

On to `Nc1nc2ccc(OC(F)(F)F)cc2s1` [riluzole, reference compound], for which the “pole climbing time / symptoms of bradykinesia” value in assay [5] is “significantly improve the symptoms of bradykinesia”. Also, the limb grip force result in assay [6] is on record as “effectively increase the limb force”.
